Reference: paper PMC12713628 (2025)
Like-named read-outs stand apart in the source and are kept apart here. Each block holds one molecule with its values, some of them ahead of it.

Experiments:
Assay in all cases: ITC
[1] = test system: AI-TES-R3R5HD-T (DNA, aptamer) GGACGACGGGGATTTGGGGTTTTCTATGTTTTTCGTCCTTTTTTTGCTGCGTTCTCCATTCTGG
[2] = test system: CS-R5MP (DNA, aptamer) GGCTCTCGGGACGACGGGGATTTTTGGTGCACTATGTGGTTCGTTCGGGGTGGGCTGCGTTCTCCATTCTGG; settings: one-site fit
[3] = test system: CS-R7MP-T (DNA, aptamer) CGGGACGACGGGGATTTTATTTGCACTATGTGGCTCGTTCGGGGTGTGCTGCGTTCTCCATTCTGG; settings: one-site fit
[4] = one-site fit, aptamer identified from Figure 3e legend

KD [1, 4]: 9.38 µM
SMILES: CC(=O)[C@H]1CC[C@H]2[C@@H]3CCC4=CC(=O)CC[C@]4(C)[C@H]3CC[C@]12C

KD [2]: ~ 2.41 μM
KD [3]: 5.1 µM
SMILES: C[C@]12CCC(=O)C=C1CC[C@@H]1[C@@H]2[C@@H](O)C[C@@]2(C)[C@H]1CC[C@]2(O)C(=O)CO

KD [1, 4]: 6.22 µM
SMILES: C[C@]12CC[C@@H]3c4ccc(O)cc4CC[C@H]3[C@@H]1CC[C@@H]2O

KD [1]: 0.313 µM
SMILES: C[C@]12CC[C@H]3[C@@H](CCC4=CC(=O)CC[C@@]43C)[C@@H]1CC[C@@H]2O
